According to patent US20140357655A1, “SPIROINDOLINE DERIVATIVES AS GONADOTROPIN- RELEASING HORMONE RECEPTOR ANTAGONISTS” (Bayer Intellectual Property GmbH, priority 2012, published 2014):

Target: T1, human GnRH receptor (Homo sapiens, UniProt P30968)
T1 sequence (P30968 1-328): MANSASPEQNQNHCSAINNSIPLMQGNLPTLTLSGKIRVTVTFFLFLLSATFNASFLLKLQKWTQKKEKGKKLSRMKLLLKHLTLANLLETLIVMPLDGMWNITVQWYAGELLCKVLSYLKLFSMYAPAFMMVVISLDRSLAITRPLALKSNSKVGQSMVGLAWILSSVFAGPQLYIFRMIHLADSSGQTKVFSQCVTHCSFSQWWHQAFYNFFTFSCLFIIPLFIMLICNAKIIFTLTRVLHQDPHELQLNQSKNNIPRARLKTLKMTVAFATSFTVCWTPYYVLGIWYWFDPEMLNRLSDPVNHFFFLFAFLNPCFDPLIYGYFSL
Assay: IP-One HTRF assay with buserelin (at EC80) stimulation
Assay type: cell-based
Settings: CHO cells stably expressing human GnRH receptor, read-out: Potency in IP-One HTRF assay, given as IC50
Method in brief: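 CHO cells stably expressing human GnRH receptor, preincubated 1 h at 37° C with IP1-d2, were exposed to compound and buserelin at EC80 for 1 h at 37° C. After lysis with Tb-anti-IP1 antibody (1 h, 22° C), 665/620 nm HTRF ratio read; 10 concentrations, 20 μM–1 nM, duplicates, 4-parameter IC50.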

## O=C(NCc1ncccc1C(F)(F)F)c1ccc2c(c1)C1(CCS(=O)(=O)CC1)C(C1CC1)N2S(=O)(=O)c1ccc(F)cc1 (stereo not drawn) [Example 15, 2-cyclopropyl-1-[(4-fluorophenyl)sulfonyl]-N-{[3-(trifluoromethyl)pyridin-2-yl]methyl}-1,2,2′,3′,5′,6′-hexahydrospiro[indole-3,4′-thiopyran]-5-carboxamide 1′,1′-dioxide]
  IC50: 103 nM

## N#Cc1cccc(S(=O)(=O)N2c3ccc(C(=O)NCc4ccccc4Cl)cc3C3(CCS(=O)(=O)CC3)C2C2CC2)c1 (single isomer, unassigned) [Example 76.2, N-(2-chlorobenzyl)-1-[(3-cyanophenyl)sulfonyl]-2-cyclopropyl-1,2,2′,3′,5′,6′-hexahydrospiro[indole-3,4′-thiopyran]-5-carboxamide 1′,1′-dioxide]
  IC50: 689 nM

## CN(C)S(=O)(=O)c1cccc(NC(=O)c2ccc3c(c2)C2(CCS(=O)(=O)CC2)C(C2CC2)N3S(=O)(=O)c2ccc(F)cc2)c1 (stereo not drawn) [Example 37, 2-cyclopropyl-N-[3-(N,N-dimethylsulfamoyl)phenyl]-1-[(4-fluorophenyl)sulfonyl]-1,2,2′,3′,5′,6′-hexahydrospiro[indole-3,4′-thiopyran]-5-carboxamide 1′,1′-dioxide]
  IC50: 78 nM

## COc1cccc(S(=O)(=O)N2c3ccc(C(=O)NCc4ncccc4C)cc3C3(CCS(=O)(=O)CC3)C2C2CC2)c1 (stereo not drawn) [Example 45, 2-cyclopropyl-1-[(3-methoxyphenyl)sulfonyl]-N-[(3-methylpyridin-2-yl)methyl]-1,2,2′,3′,5′,6′-hexahydrospiro[indole-3,4′-thiopyran]-5-carboxamide 1′,1′-dioxide]
  IC50: 299 nM

## O=C(NCc1ccccc1C(F)F)c1ccc2c(c1)C1(CCS(=O)(=O)CC1)C(C1CC1)N2S(=O)(=O)c1ccc(OC(F)F)cc1 (stereo not drawn) [Example 91, 2-cyclopropyl-1-{[4-(difluoromethoxy)phenyl]sulfonyl}-N-[2-(difluoromethyl)benzyl]-1,2,2′,3′,5′,6′-hexahydrospiro[indole-3,4′-thiopyran]-5-carboxamide 1′,1′-dioxide]
  IC50: 5.9 nM

## O=C(NCc1ccccc1O)c1ccc2c(c1)C1(CCS(=O)(=O)CC1)C(C1CC1)N2S(=O)(=O)c1ccc(F)cc1 (stereo not drawn) [Example 69, 2-cyclopropyl-1-[(4-fluorophenyl)sulfonyl]-N-(2-hydroxybenzyl)-1,2,2′,3′,5′,6′-hexahydrospiro[indole-3,4′-thiopyran]-5-carboxamide 1′,1′-dioxide]
  IC50: 320 nM

## COc1cccc(S(=O)(=O)N2c3ccc(C(=O)Nc4cccc(S(=O)(=O)N(C)C)c4)cc3C3(CCS(=O)(=O)CC3)C2C2CC2)c1 (single isomer, unassigned) [Example 43.1, 2-cyclopropyl-N-[3-(N,N-dimethylsulfamoyl)phenyl]-1-[(3-methoxyphenyl)sulfonyl]-1,2,2′,3′,5′,6′-hexahydrospiro[indole-3,4′-thiopyran]-5-carboxamide 1′,1′-dioxide]
  IC50: 344 nM

## N#Cc1ccc(S(=O)(=O)N2c3ccc(C(=O)NCc4ccccc4C(F)(F)F)cc3C3(CCS(=O)(=O)CC3)C2C2CC2)cc1 (single isomer, unassigned) [Example 72.1, 1-[(4-cyanophenyl)sulfonyl]-2-cyclopropyl-N-[2-(trifluoromethyl)benzyl]-1,2,2′,3′,5′,6′-hexahydrospiro[indole-3,4′-thiopyran]-5-carboxamide 1′,1′-dioxide]
  IC50: 11 nM

## O=C(NCc1ncccc1C(F)(F)F)c1ccc2c(c1)C1(CCS(=O)(=O)CC1)C(C1CC1)N2S(=O)(=O)c1ccc(F)cc1 (single isomer, unassigned) [Example 15.2, 2-cyclopropyl-1-[(4-fluorophenyl)sulfonyl]-N-{[3-(trifluoromethyl)pyridin-2-yl]methyl}-1,2,2′,3′,5′,6′-hexahydrospiro[indole-3,4′-thiopyran]-5-carboxamide 1′,1′-dioxide]
  IC50: 69 nM
